# Assay results taken from PubChem BioAssay AID602296 (Broad Institute, 2012).
# Inconclusive results are not listed. Active and inactive are the calls of the source.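 Rule for the calls: active = fitted activation curve crossing 40% at a concentration no higher than the sample's top valid tested dose; inconclusive = flat fitted curve at 30% to 70% activation, or poor curve fit; inactive = signal decrease, flat curve within 30%, or the rest.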
# Tested on: NIH3T3-HGL HSF-1 response element luciferase, 48 h
# Test: HSF-1 reporter activators over prolonged exposure, confirmation, cell-based, mouse, luciferase, cherry-pick, dose (AID 602296);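 note: test compounds applied by themselves with no MG132 co-treatment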
row,Compound,AC40
1,CCOc1cc(N2CCOCC2)c(OCC)cc1NC(=O)Cc1cccc2ccccc12,> 26 µM (inactive)
2,COc1cccc(-c2nn(-c3ccccc3)cc2C(=O)n2nnc3ccccc32)c1,> 26 µM (inactive)
3,CCN(CCCNC(=O)CNC(=O)c1nn(-c2ccc(OC)cc2OC)c(=O)c2ccccc12)c1cccc(C)c1,> 26 µM (inactive)
4,CCC(=O)Nc1cccc(C(=O)/C=C/c2ccc(F)cc2)c1,11.2 µM
5,COc1cccc(NC(=O)CSc2nc(N)cc(N)n2)c1,> 26 µM (inactive)
6,CCCCC(=O)OCC(=O)c1[nH]c(C)c(C(=O)OCC)c1C,7.5 µM
7,O=C(CSCc1ccc(Br)cc1)N1CCCC1,11.3 µM
8,O=C(CSc1nc2ccccc2c2nc3ccccc3n12)NCc1ccco1,10.1 µM
9,O=C(NCCN1CCN(C(=O)c2ccc(Br)cc2)CC1)c1ccc(Br)cc1,> 26 µM (inactive)
10,CC1=Nc2ccccc2/C1=C/c1nc(-c2ccc(C)s2)oc1O,10.1 µM
11,O=C(CSc1cccc2cccnc12)N/N=C/c1cccnc1,> 26 µM (inactive)
12,O=Nc1c(-c2ccccc2)[nH]n(-c2ccccc2)c1=O,20.7 µM
13,Cc1nc2scc(-c3ccc(Cl)cc3)c2c(=O)n1N,> 26 µM (inactive)
14,CN1CCC(=NNc2ccc(S(=O)(=O)N3CCOCC3)cc2[N+](=O)[O-])CC1,> 26 µM (inactive)
15,O=C(Cc1cccs1)NCc1ccccc1Br,1.77 µM
16,COC(=O)c1ccc(C(=O)OC)c(NC(=O)C(C)(C)C)c1,> 26 µM (inactive)
17,O=[N+]([O-])c1ccc(-c2csc(Nc3ccccc3)[n+]2Cc2ccccc2)cc1,10.9 µM
18,COc1ccc(/C=C/C(=O)N(C(C)C)C(C)C)cc1Br,6.82 µM
19,CCOC(=O)CSc1cc(-c2ccccc2)nc2ncnn12,> 26 µM (inactive)
20,COCCNC(=S)N/N=C/c1ccc(N2CCOCC2)cc1,> 26 µM (inactive)
21,COc1cc(/C=N/N2C(=O)c3ccccc3NC2(C)c2cccc([N+](=O)[O-])c2)cc(Br)c1O (centres undefined),> 26 µM (inactive)
22,Cc1ccc(CNC(=O)CSc2ccsc2[N+](=O)[O-])cc1,0.83 µM
23,CCC1CCCCN1C(=O)COC(=O)c1cc2ccccc2cc1O (centres undefined),> 26 µM (inactive)
24,Cc1cc(C)n(CC(O)COc2ccc(Cl)cc2Cl)n1 (centres undefined),5.12 µM
25,CCSc1nnc(NC(=O)c2cccnc2Cl)s1,6.92 µM
26,CCc1nc(SCC(=O)c2ccc(Cl)s2)c2oc3ccccc3c2n1,18.6 µM
27,COc1ccc(/C=C2/SC(=O)N(CCNC(=O)C3COc4ccccc4O3)C2=O)cc1 (centres undefined),5.69 µM

row,Compound,AC40
1,S=C(N/N=C/c1cccs1)NC1CC2CCC1C2 (centres undefined),4.41 µM
2,Cc1ccc(O)c(NC(=O)c2onc(C)c2Cl)c1,> 26 µM (inactive)
3,Cc1c(Cl)ccc2c1NC(=O)C21NC(CCC(N)=O)[C@H]2C(=O)N(c3ccc(Cl)cc3)C(=O)[C@H]21 (some centres undefined),> 12 µM (inactive)
4,COc1ccc(C2CC(=O)c3cnc(N4CCc5ccccc54)nc3C2)cc1OC (centres undefined),> 26 µM (inactive)
5,CC(C)n1cc(/C=N/NC(=O)COc2cccc3cccnc23)c2ccccc21,> 26 µM (inactive)
6,N#C/C(=C\c1ccc(OCc2ccc(Cl)cc2)cc1)C(=O)Nc1cccc(C(=O)O)c1,2.68 µM
7,O=C1CCCN1CCCN=c1c([N+](=O)[O-])nn(-c2ccc(Cl)cc2)n1O,> 12 µM (inactive)
8,Cc1occc1C(=O)NNS(=O)(=O)c1ccc([N+](=O)[O-])cc1,> 26 µM (inactive)
9,CCOC(=O)c1sc(C)c2c1NC(C)(c1cccc3ccccc13)NC2=O (centres undefined),> 26 µM (inactive)
10,O=C(O)c1c(Cl)c(Cl)c(Cl)c(Cl)c1C(=O)N1CCCC1,> 26 µM (inactive)
11,O=c1[nH]c2ccccc2n1CCC1CCCCC1,5.36 µM
12,CCOC(=O)c1c(-c2ccc(C)o2)csc1NC(=O)CSc1nncs1,13.6 µM
13,COc1cccc(CNc2ccc(Br)cn2)c1O,12.2 µM
14,Cc1ccc(-c2nn(-c3cc(Cl)ccc3[N+](=O)[O-])c(=O)c3ccccc23)cc1,> 26 µM (inactive)
15,O=C(Nc1ccc2c(c1)C(=O)OC2)c1ccc(Cl)cc1,12.2 µM
16,CCN(CCNC(=O)CN1CCN(Cc2ccc(Cl)cc2)C1=O)c1ccccc1,20.9 µM
17,O=C(O)CSc1c(-c2ccccc2)[nH]c2ccccc12,> 26 µM (inactive)
18,CCc1cccc(NC(=O)c2cccc(S(=O)(=O)N3CCN(C)CC3)c2)c1,> 26 µM (inactive)
19,CCOC(=S)SCC(=O)Nc1nc(C)c(C)s1,12.4 µM
20,CC1(C)CC(=O)C(C2C3=C(CC(C)(C)CC3=O)OC3=C2C(=O)CC(C)(C)C3)=C(O)C1,> 26 µM (inactive)
21,O=C1/C(=C/c2ccc([N+](=O)[O-])cc2)Oc2cc(O)ccc21,> 26 µM (inactive)
22,O=c1c2cc(N3CCOCC3)ccc2[nH]c(=S)n1Cc1ccccn1,23.5 µM
23,COc1ccc(-c2nc(C#N)c(N3CCCCC3)o2)cc1,> 26 µM (inactive)
24,COc1ccc(-c2coc3cc4oc(=O)c(CC(=O)O)c(C)c4cc23)cc1,> 26 µM (inactive)
25,Cn1c(=O)c(/C=C/c2ccc(F)cc2)nc2ccccc21,1.99 µM
26,Cc1cc(C)cc(NC(=O)CN(C)S(=O)(=O)c2cnc[nH]2)c1,> 26 µM (inactive)
27,Cc1cc(C)n2nc(C(=O)N/N=C/c3c4ccccc4cc4ccccc34)nc2n1,> 12 µM (inactive)
